In article PMC3527569, “Anti-Inflammatory and Vasoprotective Activity of a Retroviral-Derived Peptide, Homologous to Human Endogenous Retroviruses: Endothelial Cell Effects” (PLoS ONE, 2012):
pIC50: −log10 of the molar value. Where a SMILES comes first, the peptide text is derived from it. Bridges are numbered along the chain shown (N, C = ends). Roman numbers before positions name the chains, in order.

Experiments:
GM-CSF = experiment: LPS-induced GM-CSF release by human PBMC (sandwich ELISA); type: cell-based; conditions: 18-24 h, peptide 10 nM-100 µM in triplicate, IC50 estimated from graph
Protocol: (§1) Cytokine Assays: One-hundred µL of PBMC (2 x 10^6/ml in Complete Medium) were added to each well of a flat-bottom, 96-well tissue culture plate. To each well was then added 50 µL of media or peptide (4X desired final concentration; in Complete Medium) and 50 µL of lipopolysaccharide (LPS; S. typhosa; Sigma, St. Louis, MO; 400 ng/ml Complete Medium). Each peptide was tested in triplicate at 5 log10 concentrations ranging from 100 µM to 10 nM. Plates were incubate 18-24 h at 37°C in 5% humidified CO2. Plates were then centrifuged and 100 µL of supernatant removed from each well and stored frozen at -80°C until assayed. Cytokines (TNF-α, IL-1β, IL-6, GM-CSF) were measured by sandwich ELISA assays (R & D Systems; Minneapolis, MN) using the manufacturer’s instructions. The released cytokine concentration was determined from a standard curve using recombinant cytokine provided with each kit.

IL-6 = experiment: LPS-induced IL-6 release by human PBMC (sandwich ELISA); type: cell-based; conditions: 18-24 h, peptide 10 nM-100 µM in triplicate, IC50 estimated from graph
Protocol: as §1

human blood monocytes = experiment: [125I]-MN20054 binding/uptake by human blood monocytes; conditions: 100-fold molar excess unlabeled peptide, 60 min, 37°C, PBS 0.5% BSA pH 7.5, triplicate, gamma counting (Figure 6A)
Protocol: (Perkin Elmer; Boston, MA) using the chloramine-T method. Human blood monocytes (purified by adherence to plastic; 10^6/0.2 ml in PBS with 0.5% BSA, pH 7.5 in 12×75 mm polypropylene tubes) were incubated in triplicate at 37°C for 60 min with 40 pmol [^125I]-MN20054 (∼20 Ci/mmol) in the presence or absence of a 100-fold molar excess of unlabeled peptide. Tubes were shaken gently during the incubation. The contents of each tube were layered onto a layer of 0.8 ml of 10% sucrose in polypropylene Eppendorf tubes and the tubes centrifuged for 5 min at 8,000×g to separate cell-associated from free ligand. The tubes were then snap-frozen in a dry-ice/acetone bath and the bottom of the tube containing the cell pellet cut off and then counted in a gamma-scintillation spectrophotometer. In studies to determine how much of the uptake was due to endocytosis, binding/uptake was performed as described above with the exception that half of the monocytes were pretreated for 30 min at 37°C with cytochalasin B (10 µg/ml; Sigma; St. Louis, MO).

PAF = experiment: Zymosan-induced PAF release by adherent human PBMC; type: cell-based; conditions: 1 h peptide then Zymosan 90 min, IC50 estimated from graph
Protocol: Platelet Activating Factor (PAF) and Leukotriene B4 (LTB4) Assays: PBMC were prepared as described above and adjusted to 3.3 x 10^6 cells/ml in RPMI-1640 medium containing 5 mg/ml HSA (Sigma, St. Louis, MO). To each well of a 48-well tissue culture plate was added 0.3 ml of cell suspension. The plate was incubated for 2 h at 37°C and 5% CO2 to allow cells to adhere. The wells were then washed 3X with HHBSS (Hank’s Balanced Salt Solution with 5 mg/ml HSA) at room temperature (RT). One-hundred seventy-five µL of HHBSS or test material in HHBSS was then added to each well and the plates incubated for 1 h at 37°C and 5% CO2. Samples were set up in quadruplicate. To each of duplicate wells for each sample was then added 175 µL of HHBSS or HHBSS containing 600 µg/ml of Zymosan (Sigma, St. Louis, MO). The plates were then incubated for 90 min at 37°C and 5% CO2. The plates were centrifuged and supernatants removed for quantitation of PAF or LTB4 according to the kit manufacturer’s (Amersham Pharmacia; Piscataway, NJ) instructions. The released PAF or LTB4 concentration was determined from a standard curve using standards provided with each kit.

HUVEC = experiment: [125I]-MN20054 binding/uptake by HUVEC; set-up: species or system human; conditions: 100-fold excess unlabeled peptide, 60 min; for inhibition of association of [125I]-MN20054 with HUVEC: 37°C, triplicate wells (Figure 6C)
Protocol: For binding/uptake studies on endothelial cell, HUVEC were grown to confluence in 12-well tissue culture plates. Forty pmol of [^125I]-MN20054 (∼20 Ci/mmol) in PBS with 0.5% BSA, pH 7.5, was added in a volume of 1.0 ml in the presence or absence of a 100-fold excess of the indicated competitor. The plates were allowed to incubate for 1 h at 37°C on a rocking platform and the wells were aspirated and washed 3X with 2.0 ml of ice-cold PBS/BSA. One ml of 1.0 N NaOH was added to each well for 30 min at RT to solubilize the cells and then 0.9 ml was removed from each well and counted in a gamma scintillation spectrophotometer.

IL-1β = experiment: LPS-induced IL-1β release by human PBMC (sandwich ELISA); type: cell-based; conditions: 18-24 h, peptide 10 nM-100 µM in triplicate, IC50 estimated from graph
Protocol: as §1

[1] = system: nitrate in HUVEC supernatants; experiment: NO release (nitrate as nitrite) from HUVEC; type: cell-based, human; conditions: 50 µM peptide
Protocol: HUVEC were grown to 80–90% confluence in 12-well tissue culture plates using defined media provided by Cambrex and supplemented with 10% FBS. Triplicate wells were incubated with either media alone or media containing 50 µM of the indicated peptide. Supernatant samples were removed from each well at 6 h and 24 h post peptide addition and assayed for NO release as measured by the presence of nitrate (converted to nitrite) using a kit supplied by Oxford Biomedical Research (Rochester Hill, MI) according to the manufacturer's instructions.

TF = experiment: Monocyte-associated tissue factor (TF) ELISA; type: cell-based; conditions: human PBMC cultured 18-24 h with LPS; cell lysate, IMMUBIND Tissue Factor ELISA; IC50 estimated from graph
Protocol: Tissue Factor (TF): Monocyte-associated TF was quantitated in the following manner. PBMC were cultured in 48-well tissue culture plates as described below for PAF and LTB4 assays. At the end of the culture period (18-24 h) the supernatants were removed and stored frozen for cytokine assays. The wells of the plates were washed once with PBS and to each well was added 100 µL of Triton X-100 (10% [v/v] in H2O; Sigma, St. Louis, MO). The plates were placed on an orbital shaker for 12-18 h at 4°C and a speed of ~ 125 rpm. To each well was added 900 µL of sample buffer (10 mM PBS, pH 7.4, with 1% [w/v] BSA). The contents of each well were mixed well and removed for quantitation of TF using an IMMUBIND® Tissue Factor ELISA kit (American Diagnostica; Stamford, CT) according to the manufacturer’s instructions. Samples were diluted 1:10 in sample buffer prior to being assayed.

Platelet Aggregation = experiment: Platelet aggregation; type: cell-based, human; conditions: for pIC50: human blood cells

Molecule | pIC50 (GM-CSF) | pIC50 (IL-6) | inhibition of binding or uptake of [125I]-MN20054 by monocytes (human blood monocytes) [%] | pIC50 (PAF) | inhibition of binding/uptake of [125I]-MN20054 by HUVEC (HUVEC; 37°C (Figure 7)) [%] | inhibition of association of [125I]-MN20054 with HUVEC (HUVEC) | pIC50 (IL-1β) | nitrate release (as measured by nitrite assay) from HUVEC ([1]; 6 h or ON) | pIC50 (TF) | pIC50 (Platelet Aggregation) | effect on ADP- and epinephrine-induced human platelet aggregation (Platelet Aggregation; in vitro, data not shown) | nitrate release, percent of MN10021 ([1]; 6 h and ON incubations) [%]
CC(C)C[C@H](NC(=O)CNC(=O)CNC(=O)[C@H](CCC(=O)O)NC(=O)[C@H](CCCCN)NC(=O)[C@H](CC(C)C)NC(=O)[C@H](Cc1ccccc1)NC(=O)[C@H](CC(C)C)NC(=O)[C@H](CC(C)C)NC(=O)[C@H](CC(=O)O)NC(=O)[C@H](CC(C)C)NC(=O)CNC(=O)[C@H](CCCNC(=N)N)NC(=O)[C@H](CCCNC(=N)N)NC(=O)[C@H](CC(N)=O)NC(=O)[C@H](CCC(N)=O)NC(=O)[C@@H](N)CC(C)C)C(=O)N[C@@H](CSSC[C@H](NC(=O)[C@H](CC(C)C)NC(=O)CNC(=O)CNC(=O)[C@H](CCC(=O)O)NC(=O)[C@H](CCCCN)NC(=O)[C@H](CC(C)C)NC(=O)[C@H](Cc1ccccc1)NC(=O)[C@H](CC(C)C)NC(=O)[C@H](CC(C)C)NC(=O)[C@H](CC(=O)O)NC(=O)[C@H](CC(C)C)NC(=O)CNC(=O)[C@H](CCCNC(=N)N)NC(=O)[C@H](CCCNC(=N)N)NC(=O)[C@H](CC(N)=O)NC(=O)[C@H](CCC(N)=O)NC(=O)[C@@H](N)CC(C)C)C(=O)O)C(=O)O [MN10021] (I: H-LQNRRGLDLLFLKEGGLC-OH / II: H-LQNRRGLDLLFLKEGGLC-OH; disulfide I:18-II:18) | 5.10 | < 4.00 | ~65 | 4.90 | ~75 | 77% | 4.77 | induced nitrate release | 4.90 | 5.30 | inhibit | 
H-LGGEKLFLLDGRNQLC-OH (disulfide (positions not given here)) [MN20050] | < 4.00 | < 4.00 | < 10 | < 4.00 |  | no significant inhibition | < 4.00 |  | < 4.00 | < 4.00 |  | ≤ 25
